# Reference: patent US6462066B2, “Method and composition for treatment of ischemic neuronal reperfusion injury” (University of South Florida, priority 1999, dated 2002)
# Tests used:
# [1] = Dantrolene treatment of the patient of Example 1 (post-operative bilateral ischemic optic neuropathy), visual acuity and visual fields; format: in vivo, human; conditions: Example 1 patient
# Procedure: A patient undergoes back surgery lasting 8 hours and, upon awakening after 16 hours, complains of not being able to see from their left eye. The surgery had lasted 8 hours, and 1 unit of blood had been lost. During surgery, their systolic blood pressure had dropped to 80 mm Hg. […] They are a contact lens wearer. previously having a corrected visual acuity of 20/20 bilaterally.
# There is a relative afferent pupillary defect on the left. They have a sizeable loss of their right visual field, which is illustrated in FIGS. 2A and 2B. […] Both pupils are reactive, varying in diameter from 3.0 to 3.5 mm.
# Their extra-ocular muscle movements, intraocular pressures, and anterior segment exam, are within normal limits. […] The right optic disc is of normal color. […] It is pulsatile, and each time a pulse occurs, it jumps away from the optic disc. This can be clearly seen with a 90 diopter lens and a portable Kowa slit lamp, or with a 20 diopter lens and a Keeler indirect opthalmoscope. The retina appears normal in both eyes. […] A clinical diagnosis of posterior ischemic optic neuropathy with resultant field defect and pending loss of vision in the right eye is also made. MRI of the optic nerves confirms these diagnoses. Bilateral swelling of the optic nerves is seen behind the optic discs. The swelling is more marked in the left optic nerve than in the right. MRI confirms that they have a swollen optic left nerve. A diagnosis of bilateral ischemic optic neuropathy is made: the blood supply to the left eye has been occluded, and the same process is occurring in the right eye. Just prior to discovering their loss of sight, their serum calcium is low, and the nurse administers intravenous calcium.
# To prevent compression of the blood supply in the right eye, the patient is given high dosed pulsed steroids. However, excitotoxic damage of the retina from reperfusion injury is almost certain in the absence of the treatment of the present invention.
# The patient is administered 2 gm solumedrol, and then 1 gm every 6 hours. Dantrolene is administered at 2 mg/kg every 2 hours for three treatments, and then 1 mg/kg every 8 hours.
# [2] = Dantrolene treatment of the patient of Example 2 (post-operative bilateral ischemic optic neuropathy), visual acuity and visual fields; format: in vivo, human; conditions: Example 2 patient
# Procedure: Their past medical history is significant for an episode of hyperglycemia approximately 45 years previously. They have been a non-smoker for the last 20 years, and prior to that they were a heavy smoker.
# The operation lasts for approximately 10 hours. They are under general anesthesia for the duration of the operation. The estimated blood loss is 2200 mL during the operation, of which 1200 mL is replaced via a cell saver, and an additional 2 units of blood is given along with crystalloids. Their blood pressure drops once during the operation to 89 mm Hg. Before the surgery they are able to read with glasses. […] Strong venous pulsations are seen at the optic disc of the left eye. A diagnosis of bilateral ischemic optic neuropathy is made.
# (§1) He is placed on intravenous dantrolene, 2 mg/kg body weight q 2 hourly×3 followed q 8 hourly. In addition, […] is placed on solumedrol, 250 mg q 6 hourly. […] visual acuity fields are recorded on a daily basis. On day 3 dantrolene treatment is changed from intravenous to oral 500 mg po tid. On day 4 color vision is restored and on day 5 all treatment is stopped.
# [3] = Serum level of dantrolene in the patient of Example 2; format: in vivo, human; conditions: Example 2 patient
# Procedure: as §1
# The serum level of dantrolene is 14×10^−6 gm/mL on day 4, and 15×10^−6 gm/mL on day 2.
# [4] = test system: excitotoxic damage; conditions: stated as known; cited from earlier work
compound,measurement,setting,value
O=C1CN(/N=C/c2ccc(-c3ccc([N+](=O)[O-])cc3)o2)C(O)=N1 [Dantrolene],vision of the left eye,"[1]; 24 hours after initiation of treatment, baseline no perception of light",light perception
same,corrected visual acuity in the right eye,"[1]; 24 hours later, dantrolene 2 mg/kg every 2 hours x3 then 1 mg/kg every 8 hours, with solumedrol, baseline uncorrected 20/70",20/30
same,vision of the left eye,[1]; 72 hours after treatment,starts to perceive hand movement
same,uncorrected visual acuity in the right eye,"[1]; by the fifth day, baseline 20/70",20/50
same,inferior field loss,"[1]; right eye, at the fifth day (lessens from 48 hours after starting treatment)",none
same,corrected visual acuity in the left eye at distance,[1]; two months after discharge,counting fingers
same,corrected visual acuity in the left eye at near distance,[1]; two months after discharge,20/800
same,visual acuity with glasses,"[2]; 16 hours postoperatively, intravenous dantrolene 2 mg/kg q 2 hourly x3 then q 8 hourly, with solumedrol, baseline no light perception in either eye",counting fingers OU in the superior visual fields
same,color vision,[2]; day 4,restored
same,serum level of dantrolene,[3]; day 2 (intravenous dantrolene),15×10^−6 gm/mL
same,serum level of dantrolene,[3]; day 4 (oral 500 mg po tid from day 3),14×10^−6 gm/mL
same,excitotoxic damage in an animal seizure model,[4],prevents excitotoxic damage
